The text below walks through data of patent US20250296971A1, “GASTRIC INHIBITORY PEPTIDE RECEPTOR LIGANDS” (priority 2021, published 2025).

*1 amine or outer side, *2 acyl side, *3 side chain or, on linkers, in order; H or OH if unused. Where a SMILES comes first, the peptide text is derived from it. Bridges are numbered along the chain shown (N, C = ends). [ ]: non-standard residue; d: D form. The star is where a group is joined. X5 = NC(=O)[C@H](CCCCNC(=O)CN1CCN(CC(=O)O)CCN(CC(=O)O)CCN(CC(=O)O)CC1)NC(=O)CCC(=O)NCCCOCCOCCOCCCN*; X19 = O=C(O)CN1CCN(CC(=O)O)CCN(CC(=O)N2CCN(Cc3cc(C[*:1])cc(C[*:2])c3)CC2)CCN(CC(=O)O)CC1; X11 = O=C(CN1CCN2CCN3CCN(CC1)CC(=O)[O][In]([O]C(=O)C2)[O]C(=O)C3)NCCCOCCOCCOCCCN*; X3 = O=C(O)CN1CCN(CC(=O)O)CCN(CC(=O)NCCCOCCOCCOCCCN*)CCN(CC(=O)O)CC1; NH(1-deoxy-D-glucityl) = OC[C@@H](O)[C@@H](O)[C@H](O)[C@@H](O)CN*; X26 = O=C(O)CN1CCN2CCN(CCN(CC(=O)*)CC1)CC(=O)[O][Zn][O]C(=O)C2; Trp(5-Cl) = N[C@@H](Cc1c[nH]c2ccc(Cl)cc12)C(=O)O; Trp(6-Cl) = N[C@@H](Cc1c[nH]c2cc(Cl)ccc12)C(=O)O; Trp(6-F) = N[C@@H](Cc1c[nH]c2cc(F)ccc12)C(=O)O; 1Nal = N[C@@H](Cc1cccc2ccccc12)C(=O)O; mXylylene = c1cc(C[*:1])cc(C[*:2])c1; Glutaryl = O=C(CCCC(=O)[*:2])[*:1]; X6 = c1cc(CSCCN[*:2])nc(C[*:1])c1; X7 = c1cc(CSCCN[*:2])cc(C[*:1])c1; Hyp = O=C(O)[C@@H]1C[C@@H](O)CN1; Suc = O=C(CCC(=O)[*:2])[*:1]; Api = NC1(C(=O)O)CCNCC1; Thp = NC1(C(=O)O)CCOCC1; Deg = CCC(N)(CC)C(=O)O; Aib = CC(C)(N)C(=O)O

The assay has as its target T1, GIPR (CHO-K1-hGIPR cells) (Homo sapiens, UniProt P48546).
T1 construct: host or cells: CHO-K1
T1 sequence (P48546 22-466): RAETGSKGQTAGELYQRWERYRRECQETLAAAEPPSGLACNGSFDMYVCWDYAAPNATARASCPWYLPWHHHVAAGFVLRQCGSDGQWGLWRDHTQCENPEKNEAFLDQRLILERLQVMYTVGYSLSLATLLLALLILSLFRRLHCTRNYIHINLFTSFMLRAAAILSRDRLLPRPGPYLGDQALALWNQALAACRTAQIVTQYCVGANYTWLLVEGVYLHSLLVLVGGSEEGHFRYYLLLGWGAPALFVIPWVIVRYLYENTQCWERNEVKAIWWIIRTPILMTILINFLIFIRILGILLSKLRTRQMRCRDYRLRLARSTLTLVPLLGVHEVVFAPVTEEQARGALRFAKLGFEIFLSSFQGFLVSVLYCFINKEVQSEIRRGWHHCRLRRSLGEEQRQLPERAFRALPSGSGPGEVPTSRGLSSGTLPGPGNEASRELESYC
The assay can be described thus: FACS binding assay. The settings on record: competition with 20 nM GIP-057, 4° C., 1 hour, read-out: pIC50 Category (converted). The method in brief:
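Median fluorescence in the APC channel, measured on washed CHO-K1 cells overexpressing human GIPR, was fitted by four-parameter logistic regression against peptide concentration to yield EC50 or IC50 values. Secondary labelling used APC-streptavidin (1 μg/mL, 30 min, ice).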

With `CC[C@H](C)[C@@H]1NC(=O)[C@H](CC(C)C)NC(=O)C(CC)(CC)NC(=O)[C@@H](NC(=O)[C@@H](CC(C)C)NC(=O)[C@H](CCC(=O)O)NC(=O)[C@@H]2CCCN2C(=O)[C@H](Cc2cccc3ccccc23)NC(=O)[C@H](Cc2c[nH]c3ccccc23)NC(=O)[C@H](CC(=O)O)NC(C)=O)CSCc2cccc(c2)CSC[C@@H](C(=O)NCCCOCCOCCOCCCNC(=O)CCC(=O)N[C@@H](CCCCNC(=O)CN2CCN(CC(=O)O)CCN(CC(=O)O)CCN(CC(=O)O)CC2)C(N)=O)NC1=O` [GIP-139, Ac-Asp-Trp-1Ni-Pro-Glu-leu-[Cys(3MeBn)-Deg-Leu-Ile-Cys]-Ttds-Lys(DOTA)-NH2] (Ac-DW[1Nal]PE[dL]C[Deg]LIC-X5; linker 7-11 via mXylylene), the IC50 was 10 to 79.4 nM.

With `CC[C@H](C)[C@@H]1NC(=O)[C@H](CC(C)C)NC(=O)C(C)(C)NC(=O)[C@@H](NC(=O)[C@@H](CC(C)C)NC(=O)[C@H](CCC(=O)O)NC(=O)[C@@H]2CCCN2C(=O)[C@H](Cc2c[nH]c3cc(F)ccc23)NC(=O)[C@H](Cc2c[nH]c3ccccc23)NC(=O)[C@H](CC(=O)O)NC(C)=O)CSCc2cccc(c2)CSC[C@@H](C(=O)NCCCOCCOCCOCCCNC(=O)CCC(=O)N[C@@H](CCCCNC(=O)CN2CCN(CC(=O)O)CCN(CC(=O)O)CCN(CC(=O)O)CC2)C(N)=O)NC1=O` [GIP-140, Ac-Asp-Trp-6Fw-Pro-Glu-leu-[Cys(3MeBn)-Aib-Leu-Ile-Cys]-Ttds-Lys(DOTA)-NH2] (Ac-DW[Trp(6-F)]PE[dL]C[Aib]LIC-X5; linker 7-11 via mXylylene), the IC50 was 10 to 79.4 nM.

Regarding `CC[C@H](C)[C@@H]1NC(=O)[C@H](CC(C)C)NC(=O)C(C)(C)NC(=O)[C@@H](NC(=O)[C@@H](CC(C)C)NC(=O)[C@H](CCC(=O)O)NC(=O)[C@@H]2CCCN2C(=O)[C@H](Cc2c[nH]c3ccccc23)NC(=O)[C@H](Cc2c[nH]c3cc(Cl)ccc23)NC(=O)[C@H](CC(=O)O)NC(=O)CCC(=O)NCCCOCCOCCOCCCNC(=O)CN2CCN(CC(=O)O)CCN(CC(=O)O)CCN(CC(=O)O)CC2)CSCc2cccc(c2)CSCCNC1=O` [GIP-141, DOTA-Ttds-Asp-6Clw-Trp-Pro-Glu-leu-[Cys(3MeBn)-Aib-Leu-Ile-AET]] ({X3-Suc}-D[Trp(6-Cl)]WPE[dL]C[Aib]LI; linker 7-C via X7), the IC50 was 10 to 79.4 nM.

In the case of `CC[C@H](C)[C@@H]1NC(=O)[C@H](CC(C)C)NC(=O)C2(CCOCC2)NC(=O)[C@@H](NC(=O)[C@@H](CC(C)C)NC(=O)[C@H](CCC(=O)O)NC(=O)[C@@H]2C[C@@H](O)CN2C(=O)[C@H](Cc2c[nH]c3ccc(Cl)cc23)NC(=O)[C@H](Cc2c[nH]c3ccccc23)NC(=O)[C@H](CC(=O)O)NC(C)=O)CSCc2cc(cc(CN3CCN(C(=O)CN4CCN(CC(=O)O)CCN(CC(=O)O)CCN(CC(=O)O)CC4)CC3)c2)CSC[C@@H](C(N)=O)NC1=O` [GIP-145, Ac-Asp-Trp-5Clw-Hyp-Glu-leu-[Cys(tMeBn(DOTA-PP))-Thp-Leu-Ile-Cys]-NH2] (Ac-DW[Trp(5-Cl)][Hyp]E[dL]C[Thp]LIC-NH2; linker 7-11 via X19), the IC50 is 10 to 79.4 nM.

As to `CC[C@H](C)[C@@H]1NC(=O)[C@H](CC(C)C)NC(=O)C2(CCN(C(=O)CN3CCN(CC(=O)O)CCN4CCN(CC3)CC(=O)[O][Zn][O]C(=O)C4)CC2)NC(=O)[C@@H](NC(=O)[C@@H](CC(C)C)NC(=O)[C@H](CCC(=O)O)NC(=O)[C@@H]2C[C@@H](O)CN2C(=O)[C@H](Cc2c[nH]c3ccc(Cl)cc23)NC(=O)[C@H](Cc2c[nH]c3ccccc23)NC(=O)[C@H](CC(=O)O)NC(=O)CCCC(=O)NC[C@H](O)[C@@H](O)[C@H](O)[C@H](O)CO)CSCc2cccc(n2)CSCCNC1=O` [GIP-147, AGLU-Glutar-Asp-Trp-5Clw-Hyp-Glu-leu-[Cys(2Lut)-Apc(ZnDOTA)-Leu-Ile-AET]] ({NH(1-deoxy-D-glucityl)-Glutaryl}-DW[Trp(5-Cl)][Hyp]E[dL]C[Api](X26)LI; linker 7-C via X6), the IC50 is less than 10 nM.

In the case of `CC[C@H](C)[C@@H]1NC(=O)[C@H](CC(C)C)NC(=O)C(C)(C)NC(=O)[C@@H](NC(=O)[C@@H](CC(C)C)NC(=O)[C@H](CCC(=O)O)NC(=O)[C@@H]2CCCN2C(=O)[C@H](Cc2c[nH]c3ccc(Cl)cc23)NC(=O)[C@H](Cc2c[nH]c3ccccc23)NC(=O)[C@H](CC(=O)O)NC(=O)CCC(=O)NCCCOCCOCCOCCCNC(=O)CN2CCN3CCN4CCN(CC2)CC(=O)[O][In]([O]C(=O)C3)[O]C(=O)C4)CSCc2cccc(c2)CSCCNC1=O` [GIP-148, InDOTA-Ttds-Asp-Trp-5Clw-Pro-Glu-leu-[Cys(3MeBn)-Aib-Leu-Ile-AET]] ({X11-Suc}-DW[Trp(5-Cl)]PE[dL]C[Aib]LI; linker 7-C via X7), the IC50 was less than 10 nM.
